The values that follow come from US11891405B2, “Furo[3,4-b]pyrrole-containing BTK inhibitor” (CHIA TAI TIANQING PHARMACEUTICAL GROUP CO., LTD., priority 2018, dated 2024).

The term IC50 denotes the concentration that inhibits the measured activity by half. A low value points to greater potency in that assay.

The target of data set [1] is EGFR (WT) (Homo sapiens, UniProt P00533). The data set is described as follows: Screening for EGFR inhibitory activity. It is filed as biochemical. Here is the method:
1.2 Screening for EGFR (Epidermal Growth Factor Receptor) Inhibitory Activity
50 ng/μL EGFR (WT) stock solution was diluted with kinase buffer (50 mM HEPES, 10 mM MgCl2, 2 mM DTT, 1 mM EGTA, 0.01% Tween 20), and 6 μL of 1.67× working solution at 0.01336 ng/μL (final concentration: 0.008 ng/μL) was added to each well. Different compounds dissolved in DMSO were added to the wells using a nanoliter pipettor, resulting in the final concentration of 1000 nM to […] (4-fold gradient for 7 concentrations in total), and blank control wells (without enzyme) and negative control wells (with enzyme, plus vehicle DMSO) were set, 2 replicate wells for each well. After enzyme was reacted with the compound or vehicle for 10 min, 5× ATP at 25 μM (final concentration: 5 μM) prepared with kinase buffer was mixed with 5× substrate at 0.5 μM (final concentration: 0.1 μM, ULight-poly GT) at a ratio of 1:1, and the mixture was added to each well at 4 μL/well. After being sealed with a film, the plate was incubated at room temperature for 2 h, then 5 μL of 4×EDTA at 40 mM (final concentration: 10 mM) was added to each well. After the plate was incubated for 5 min at room temperature, 5 μL of 4× detection reagent at 8 nM (final concentration: 2 nM, Eu-anti-phospho-tyrosine antibody) was added to each well, followed by incubation at room temperature for 1 h. The plate was read using a PE Envision multi-functional microplate reader (excitation: 320 nm, emission: 665 nm), and IC50 was calculated by four-parameter fitting.

For data set [2], the target named is T1, BTK (Y223) phosphorylation in Ramos lymphoma cells (Homo sapiens, UniProt Q06187).
T1 construct: Ramos lymphoma cells in logarithmic growth phase were centrifuged; endogenous in cells; host or cells: Ramos lymphoma cells
T1 sequence (Q06187 whole entry): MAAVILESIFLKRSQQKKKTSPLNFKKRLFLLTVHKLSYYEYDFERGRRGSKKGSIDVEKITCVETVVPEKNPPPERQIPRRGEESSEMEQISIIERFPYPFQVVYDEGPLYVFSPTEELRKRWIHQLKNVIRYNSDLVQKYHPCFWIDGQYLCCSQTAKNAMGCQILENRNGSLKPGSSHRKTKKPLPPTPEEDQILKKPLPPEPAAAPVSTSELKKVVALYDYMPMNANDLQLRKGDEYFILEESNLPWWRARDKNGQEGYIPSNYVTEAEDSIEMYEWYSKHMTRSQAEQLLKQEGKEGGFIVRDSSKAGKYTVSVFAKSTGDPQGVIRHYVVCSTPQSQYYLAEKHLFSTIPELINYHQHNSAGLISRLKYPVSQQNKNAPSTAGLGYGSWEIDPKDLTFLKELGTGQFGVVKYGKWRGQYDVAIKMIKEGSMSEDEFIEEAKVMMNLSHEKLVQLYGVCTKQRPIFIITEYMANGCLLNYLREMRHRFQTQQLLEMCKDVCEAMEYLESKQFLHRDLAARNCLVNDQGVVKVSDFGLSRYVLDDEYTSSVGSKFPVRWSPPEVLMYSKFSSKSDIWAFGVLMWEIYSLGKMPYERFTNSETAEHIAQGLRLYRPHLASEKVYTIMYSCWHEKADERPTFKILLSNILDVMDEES
The data set is described as follows: BTK (Y223) phosphorylation inhibition at cell level. It is filed as cell-based. Here is the method: EXPERIMENTAL EXAMPLE 2: SCREENING FOR BTK (Y223) PHOSPHORYLATION INHIBITION ACTIVITY AT CELL LEVEL
20 μL of 30% hydrogen peroxide was added in 860 μL of double distilled water to prepare 200 mM hydrogen peroxide. PV (sodium pervanadate): 10 μL of 200 mmol/L sodium orthovanadate was reacted with 10 μL of 200 mmol/L hydrogen peroxide in 80 μL of RPMI 1640 complete medium at room temperature for 15 min, and the reaction solution was diluted with RPMI 1640 complete medium to 6 mM. It was prepared freshly prior to use. Ramos lymphoma cells in logarithmic growth phase were centrifuged at 1500 rpm for 3 min using a low-speed centrifuge, added with a proper amount of RPMI 1640 complete medium, resuspended and counted. A proper amount of corresponding culture medium was added to a proper amount of cell suspension to adjust the cell density to about 1-2×10E7 cells/mL. The cells at the above cell density were seeded in a 384-well plate at 20 μL/well, then 5 μL of compound was added to each well, and the plate was incubated for 1 h. 20 mM PV was diluted with RPMI 1640 complete medium to 6 mM (final concentration: 1 mM), added to wells at 5 μL/well according to the plate distribution, and incubated for 15-20 min. The blank group was wells seeded with cells, without compound and PV, and the control group was wells seeded with cells, without compound and with PV. 10 μL of lysis buffer (4×) containing blocking buffer was added immediately and incubated by shaking at room temperature for 30 min. After the mixture was mixed, 16 μL of lysate was transferred to another 384-well small-volume white plate. The plate was added with 4 μL of pre-mixed antibody (vol/vol) in assay buffer, covered, centrifuged to mix well, and incubated overnight at room temperature. The 665 nm/620 nm signal value was detected using a PE Envision multi-functional microplate reader, and IC50 was calculated by four-parameter fitting.

Data set [3] can be described thus: Mouse liver microsome metabolic stability. The following applies: mouse liver microsomes. It is filed as in vitro ADME. Here is the method: 3.2 Mouse Liver Microsome Assay
(§1) 300 μL of final incubation system: 30 μL of mouse liver microsomes (protein concentration: 5 mg/mL, XENOTECH, USA), 30 μL of NADPH (10 mM)+MgCl2 (5 mM), 3 μL of the substrate, i.e., the example compound (dissolved in 50% aqueous acetonitrile solution, 100 μM), and 237 μL of PBS buffer, wherein the proportion of the organic solvent (acetonitrile) was 0.5%. Each tube was added with 270 μL of a mixed solution of substrate and enzyme, and after being pre-incubated at 37° C. for 5 min, added with 30 μL of NADPH+MgCl2. Then 50 μL of the mixture was taken at 0 min, 15 min, 30 min and 60 min, and added with 300 μL of diazepam glacial acetonitrile (20 ng/mL) containing an internal standard to quench the reaction. The reaction mixture was vortexed for 5 min, and centrifuged (13,000 rpm, 4° C.) for 10 min. 100 μL of supernatant was pipetted into a sample vial, from which 1 μL of supernatant was injected and analyzed by LC-MS/MS, and the residual percentage was calculated.
A general note: Microsomes from liver hold many membrane-bound enzymes, among them those of drug oxidation.

Data set [4] can be described thus: Human liver microsome metabolic stability. The following applies: human liver microsomes. It is filed as in vitro ADME. Here is the method:
3.1 Human Liver Microsome Assay
as §1, with “human” for “mouse”

A value given as a limit tells only on which side of the number the result lay.

Chain of EGFR (WT) (P00533 25-1210, species assumed): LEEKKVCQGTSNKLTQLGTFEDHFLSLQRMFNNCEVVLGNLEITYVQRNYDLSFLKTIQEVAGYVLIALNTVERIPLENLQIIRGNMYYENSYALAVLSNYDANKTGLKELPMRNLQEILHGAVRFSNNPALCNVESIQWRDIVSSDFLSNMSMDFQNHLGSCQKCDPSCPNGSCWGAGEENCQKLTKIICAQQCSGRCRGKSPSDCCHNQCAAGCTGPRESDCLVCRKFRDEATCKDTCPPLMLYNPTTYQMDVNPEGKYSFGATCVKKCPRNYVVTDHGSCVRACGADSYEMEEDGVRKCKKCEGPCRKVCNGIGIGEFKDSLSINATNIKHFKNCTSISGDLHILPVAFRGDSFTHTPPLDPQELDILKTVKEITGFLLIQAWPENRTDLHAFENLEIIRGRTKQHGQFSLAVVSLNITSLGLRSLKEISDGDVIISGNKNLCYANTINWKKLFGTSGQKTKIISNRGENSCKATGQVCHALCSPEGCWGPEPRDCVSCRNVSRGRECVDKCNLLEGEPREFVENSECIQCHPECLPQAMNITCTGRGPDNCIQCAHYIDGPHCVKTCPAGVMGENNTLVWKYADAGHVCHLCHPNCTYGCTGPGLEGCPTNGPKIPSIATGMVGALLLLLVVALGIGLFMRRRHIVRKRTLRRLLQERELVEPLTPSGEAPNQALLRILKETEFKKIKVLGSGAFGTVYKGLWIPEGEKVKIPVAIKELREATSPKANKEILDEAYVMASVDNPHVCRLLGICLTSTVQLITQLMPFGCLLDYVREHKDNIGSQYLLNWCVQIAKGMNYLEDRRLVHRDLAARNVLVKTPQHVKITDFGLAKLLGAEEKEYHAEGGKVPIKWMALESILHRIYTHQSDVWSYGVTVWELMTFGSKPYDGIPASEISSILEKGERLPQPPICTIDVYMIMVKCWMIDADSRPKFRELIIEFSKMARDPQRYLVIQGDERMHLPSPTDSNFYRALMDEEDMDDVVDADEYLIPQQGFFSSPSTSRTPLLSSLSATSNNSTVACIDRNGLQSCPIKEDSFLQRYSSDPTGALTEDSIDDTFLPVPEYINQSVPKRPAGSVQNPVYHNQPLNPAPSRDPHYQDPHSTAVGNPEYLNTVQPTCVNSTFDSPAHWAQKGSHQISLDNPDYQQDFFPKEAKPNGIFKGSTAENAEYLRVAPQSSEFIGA

For `CC#CC(=O)N1[C@@H]2COC[C@@H]2C[C@H]1c1nc(-c2ccc(C(=O)Nc3ccccn3)cc2)c2c(N)nccn12` [Compound I-1, 4-(8-amino-3-((2S,3aR,6aS)-1-(but-2-ynoyl)hexahydro-1H-furo[3,4-b]pyrrol-2-yl)imidazo [1,5-a]pyrazin-1-yl)-N-(pyridin-2-yl)benzamide], the IC50 is over 1000 nM in data set [1] and 30 nM in data set [2]. For the same compound, in data set [3], the “Mouse (MLM) Remaining % (T = 60 min)” value turned out to be 90%. For the same compound, the “Human (HLM) Remaining % (T = 60 min)” value in data set [4] is listed as 89%.
On the same counts, the results for `C=CC(=O)N1[C@@H]2COC[C@@H]2C[C@H]1c1nc(-c2ccc(C(=O)Nc3ccccn3)cc2)c2c(N)nccn12` [Compound I-3, 4-(3-((2S,3AR,6AS)-1-ACRYLOYLHEXAHYDRO-1H-FURO[3,4-B]PYRROL-2-YL)-8-AMINOIMIDAZO [1,5-A]PYRAZIN-1-YL)-N-(PYRIDIN-2-YL)BENZAMIDE] are 107 nM, 25 nM, 89% and 74%.
For `CC#CC(=O)N1[C@@H]2COC[C@@H]2C[C@H]1c1nc(-c2ccc(C(=O)Nc3cc(C(F)(F)F)ccn3)cc2F)c2c(N)nccn12` [Compound I-4, 4-(8-AMINO-3-((2S,3AR,6AS)-1-(BUT-2-YNOYL)HEXAHYDRO-1H-FURO[3,4-B]PYRROL-2-YL)IMIDAZO[1,5-A]PYRAZIN-1-YL)-3-FLUORO-N-(4-(TRIFLUOROMETHYL)PYRIDIN-2-YL)BENZAMIDE], in that order: over 1000 nM, 66 nM, 32% and 15%.
On the same counts, the results for `Nc1nccn2c([C@@H]3C[C@H]4COC[C@H]4N3C(=O)C3CC3)nc(-c3ccc(C(=O)Nc4cc(C(F)(F)F)ccn4)cc3F)c12` [Compound I-7, 4-(8-AMINO-3-((2S,3AR,6AS)-1-(CYCLOPROPANECARBONYL)HEXAHYDRO-1H-FURO[3,4-B]PYRROL-2-YL)IMIDAZO[1,5-A]PYRAZIN-1-YL)-3-FLUORO-N-(4-(TRIFLUOROMETHYL)PYRIDIN-2-YL)BENZAMIDE] are over 1000 nM, 52 nM, 55.7% and 29.9%.
